Counter-ions that a name gives are not always drawn.
Test system: Huh-7 cells
Assay: Cellular rRNA levels / cytotoxicity in HCV replicon cells
Conditions: 100 μM; 4 days; HCV replicon transfected Huh-7 cells
Source text: In a typical setting, a compound might reduce both the host RNA polymerase activity and the replicon-encoded polymerase activity. Therefore, quantification of rRNA (or any other host RNA polymerase I product) or beta-actin mRNA (or any other host RNA polymerase II) and comparison with RNA levels of the no-drug control is a relative measurement of the effect of the test compound on host RNA polymerases.
With the availability of both the HCV ΔCt data and the rRNA ΔCt, a specificity parameter can be introduced. This parameter is obtained by subtracting both ΔCt values from each other.
IFN-α-2a and ribavirin were tested over a range of concentrations for their ability to reduce the HCV RNA levels in exponentially growing replicon cells after 4 days of exposure as described (Stuyver, L. et al. “A ribonucleoside analogue that blocks the replication of bovine viral diarrhea and hepatitis C viruses in culture” Antimicrob. Agents Chemother. 2003, 47, 244-254).
Gemcitabine was dissolved in DMSO and added to the culture media of a cellular model system of Huh7 cells harboring self-replicating HCV RNA, at final concentrations ranging from […]. In such experiments, one way to express the antiviral effectiveness of a compound is to subtract the threshold reverse-transcriptase polymerase chain reactions (RT-PCR) cycle of the test compound with the average threshold RT-PCR cycle of the negative control. This value is called DeltaCt (ΔCt or dCt). With the availability of both the HCV ΔCt data and the rRNA ΔCt, a specificity parameter can be introduced. This parameter is obtained by subtracting both ΔCt values from each other.

Structure (SMILES)	log10 RNA reduction at 100 μM, rRNA
Nc1ccn(C2OC(CO)C(O)C2=CF)c(=O)n1 (centres unmarked) [Tezacytabine]	1.78 ± 0.69 log10
NC(=O)c1csc([C@@H]2O[C@H](CO)[C@@H](O)[C@H]2O)n1 [Tiazofurin]	0.99 ± 0.35 log10
COc1c(C)c2c(c(O)c1C/C=C(\C)CCC(=O)O)C(=O)OC2 [Mycophenolic acid]	1.09 ± 0.28 log10
NC(=O)NO [Hydroxyurea]	0.25 ± 0.20 log10
CN(Cc1cnc2nc(N)nc(N)c2n1)c1ccc(C(=O)N[C@@H](CCC(=O)O)C(=O)O)cc1 [Methotrexate]	0.07 ± 0.10 log10
O=C(O)C[C@H](NC(=O)CP(=O)(O)O)C(=O)O [PALA, N-(Phosphonoacetyl)-L-aspartate]	0.48 ± 0.02 log10
COc1c(C)c2c(c(O)c1CCOP(=O)(O)CP(=O)(O)OC[C@H]1O[C@@H](n3cnc4c(N)ncnc43)[C@H](O)[C@@H]1O)C(=O)OC2 [C2-MAD]	1.00 ± 0.15 log10
Nc1n[nH]c(N)n1 [Guanazole]	0.07 ± 0.03 log10

Same assay, conditions: Homo sapiens, Huh-7

Structure (SMILES)	IC50
Nc1ccn([C@@H]2O[C@H](CO)[C@@H](O)C2(F)F)c(=O)n1 [dFdC, 2′-deoxy-2′,2′-difluorocytidine]	0.24 µM

Same assay, conditions: dFdC tested initially at 50 μM

Structure (SMILES)	log10 RNA reduction, rRNA
Nc1ccn([C@@H]2O[C@H](CO)[C@@H](O)C2(F)F)c(=O)n1 [dFdC, 2′-deoxy-2′,2′-difluorocytidine]	0.59 ± 0.05 log10

Test system: HCV replicon cells (Huh-7)
Assay: 7-day cell growth dynamics, trypan-blue cell count
Conditions: range of testing 50-1,000 nM; 7-day dynamics
Experimental: FIG. 2 is a graphical depiction of the dynamics of cell growth and HCV RNA levels after exposure to control anti-HCV compounds. HCV replicon cells were seeded at approximately 10^4 cells per well in a 24-well plate. Over a 7-day period, cells were counted daily, and rRNA and HCV RNA were quantified by Q-RT-PCR. A: IFN-α-2a at 100 IU/ml; B: ribavirin at 100 μM. ●: cell proliferation in absence of compound; ◯: cell proliferation in presence of compound; ▾: HCV RNA levels in untreated cells; ∇: HCV RNA levels in the presence of compound. The curves shown are averages of 3 independent experiments.
Therefore, experiments were conducted to monitor HCV RNA levels and the cell growth dynamics over a 7-day period.
The dynamics of HCV replicon cells exposed to these inhibitors (at their EC90 value) was monitored over a 7-day period.

Structure (SMILES)	non-cytotoxic concentration
Nc1ccn([C@@H]2O[C@H](CO)[C@@H](O)C2(F)F)c(=O)n1 [dFdC, 2′-deoxy-2′,2′-difluorocytidine]	could not be found

Test system: HCV
Assay: Single treatment of an HCV-infected patient, viral load
Format: in vivo, human
Conditions: patient with multifocal HCC, cirrhosis, ischaemic hepatitis; HCl
Experimental: The tolerance was acceptable, and thus the next day the patient was given a second dosage of approximately 700 mg of gemcitabine. Before the second dosage the baseline viral load was 6.49 log copies/mL.

Structure (SMILES)	tolerance / adverse events
Nc1ccn([C@@H]2O[C@H](CO)[C@@H](O)C2(F)F)c(=O)n1 [gemcitabine HCl]	acceptable

Same assay, conditions: patient with multifocal HCC, cirrhosis, ischaemic hepatitis; listed as gemcitabine

Structure (SMILES)	tolerance / adverse events
Nc1ccn([C@@H]2O[C@H](CO)[C@@H](O)C2(F)F)c(=O)n1 [dFdC, 2′-deoxy-2′,2′-difluorocytidine]	heart problems

Same assay, conditions: patient; day after 1200 mg gemcitabine HCl with oxaliplatine

Structure (SMILES)	baseline viral load before the second dosage
Nc1ccn([C@@H]2O[C@H](CO)[C@@H](O)C2(F)F)c(=O)n1 [dFdC, 2′-deoxy-2′,2′-difluorocytidine]	6.49 log copies/mL

Same assay, conditions: second dosage approximately 700 mg

Structure (SMILES)	HCV RNA eight hours after the second dosage	drop in HCV RNA in eight hours
Nc1ccn([C@@H]2O[C@H](CO)[C@@H](O)C2(F)F)c(=O)n1 [dFdC, 2′-deoxy-2′,2′-difluorocytidine]	4.04 log copies/mL	~2.5 log

Test system: HCV replicon cells
Assay: Prevention studies with natural ribo- or 2′-deoxy nucleosides
Format: cell-based, human
Conditions: test compound at 96 h EC90 value; nucleosides at 50 μM

Structure (SMILES)	prevention of antiviral and cytostatic effects by natural nucleosides
Nc1ccn([C@@H]2O[C@H](CO)[C@@H](O)C2(F)F)c(=O)n1 [dFdC, 2′-deoxy-2′,2′-difluorocytidine]	prevented by 2′-deoxycytidine

Test system: HCV replicon
Assay: HCV replicon assay: HCV RNA by Q-RT-PCR, 4 days exposure
Format: cell-based, hepatitis C virus (HCV)
Conditions: 10 μM; corrected for rRNA
Experimental: Antiviral screening assays can be done in the same media without G418 as follows: in order to keep cells in logarithmic growth phase, seed cells in a 96-well plate at low density, for example 1000 cells per well. Add the test compound immediate after seeding the cells and incubate for a period of 3 to 7 days at 37° C. in an incubator. Media is then removed, and the cells are prepared for total nucleic acid extraction (including replicon RNA and host RNA). Replicon RNA can then be amplified in a Q-RT-PCR protocol, and quantified accordingly. […] This value is called DeltaCt (ΔCt or DCt).
This value is called DeltaCt (ΔCt or dCt).

Structure (SMILES)	Corrected HCV RNA log10 reduction at 10 μM
Nc1ccn(C2OC(CO)C(O)C2=CF)c(=O)n1 (centres unmarked) [Tezacytabine]	0.63 ± 0.07 log10
COc1c(C)c2c(c(O)c1CCOP(=O)(O)CP(=O)(O)OC[C@H]1O[C@@H](n3cnc4c(N)ncnc43)[C@H](O)[C@@H]1O)C(=O)OC2 [C2-MAD]	0.36 ± 0.21 log10

Same assay, conditions: 100 μM; 4 days; HCV replicon transfected Huh-7 cells

Structure (SMILES)	log10 RNA reduction at 100 μM, HCV
Nc1ccn(C2OC(CO)C(O)C2=CF)c(=O)n1 (centres unmarked) [Tezacytabine]	1.59 ± 0.08 log10
COc1c(C)c2c(c(O)c1CCOP(=O)(O)CP(=O)(O)OC[C@H]1O[C@@H](n3cnc4c(N)ncnc43)[C@H](O)[C@@H]1O)C(=O)OC2 [C2-MAD]	1.09 ± 0.21 log10

Same assay, conditions: 100 μM; corrected for rRNA

Structure (SMILES)	Corrected HCV RNA log10 reduction at 100 μM
Nc1ccn(C2OC(CO)C(O)C2=CF)c(=O)n1 (centres unmarked) [Tezacytabine]	−0.19 ± 0.49 log10
COc1c(C)c2c(c(O)c1CCOP(=O)(O)CP(=O)(O)OC[C@H]1O[C@@H](n3cnc4c(N)ncnc43)[C@H](O)[C@@H]1O)C(=O)OC2 [C2-MAD]	0.08 ± 0.24 log10

Same assay, conditions: 96 h incubation

Structure (SMILES)	Corrected HCV RNA EC90
Nc1ccn([C@@H]2O[C@H](CO)[C@@H](O)C2(F)F)c(=O)n1 [dFdC, 2′-deoxy-2′,2′-difluorocytidine]	Too toxic

Same assay, conditions: 96 h incubation; read-out: Corrected HCV RNA EC90

Structure (SMILES)	EC90
Nc1ccn(C2OC(CO)C(O)C2=CF)c(=O)n1 (centres unmarked) [Tezacytabine]	> 100 µM
COc1c(C)c2c(c(O)c1CCOP(=O)(O)CP(=O)(O)OC[C@H]1O[C@@H](n3cnc4c(N)ncnc43)[C@H](O)[C@@H]1O)C(=O)OC2 [C2-MAD]	> 100 µM

Same assay, conditions: HCV replicon cells

Structure (SMILES)	antiviral activity on HCV replicon RNA
Nc1ccn([C@@H]2O[C@H](CO)[C@@H](O)C2(F)F)c(=O)n1 [dFdC, 2′-deoxy-2′,2′-difluorocytidine]	most potent inhibitor of both replicon RNA and cells

Same assay, conditions: Hepatitis C virus, 96 h, read-out: Corrected HCV RNA EC90

Structure (SMILES)	EC90
NC(=O)c1csc([C@@H]2O[C@H](CO)[C@@H](O)[C@H]2O)n1 [Tiazofurin]	> 100 µM
O=C(O)C[C@H](NC(=O)CP(=O)(O)O)C(=O)O [PALA, N-(Phosphonoacetyl)-L-aspartate]	7.6 µM
Nc1n[nH]c(N)n1 [Guanazole]	> 100 µM

Same assay, conditions: Hepatitis C virus, 96 h, read-out: Corrected HCV RNA log10 reduction at 10 μM

Structure (SMILES)	log reduction at 10 µM
NC(=O)c1csc([C@@H]2O[C@H](CO)[C@@H](O)[C@H]2O)n1 [Tiazofurin]	0.04 ± 0.1
COc1c(C)c2c(c(O)c1C/C=C(\C)CCC(=O)O)C(=O)OC2 [Mycophenolic acid]	0.22 ± 0.01
CN(Cc1cnc2nc(N)nc(N)c2n1)c1ccc(C(=O)N[C@@H](CCC(=O)O)C(=O)O)cc1 [Methotrexate]	0.15 ± 0.01
O=C(O)C[C@H](NC(=O)CP(=O)(O)O)C(=O)O [PALA, N-(Phosphonoacetyl)-L-aspartate]	1.18 ± 0.11
Nc1n[nH]c(N)n1 [Guanazole]	0.05 ± 0.08
Nc1ccn([C@@H]2O[C@H](CO)[C@@H](O)C2(F)F)c(=O)n1 [dFdC, 2′-deoxy-2′,2′-difluorocytidine]	1.32 ± 0.08

Same assay, conditions: Hepatitis C virus, 96 h, read-out: Corrected HCV RNA log10 reduction at 100 μM

Structure (SMILES)	log reduction at 100 µM
NC(=O)c1csc([C@@H]2O[C@H](CO)[C@@H](O)[C@H]2O)n1 [Tiazofurin]	-0.13 ± 0.37
COc1c(C)c2c(c(O)c1C/C=C(\C)CCC(=O)O)C(=O)OC2 [Mycophenolic acid]	0.07 ± 0.47
NC(=O)NO [Hydroxyurea]	-0.08 ± 0.16
CN(Cc1cnc2nc(N)nc(N)c2n1)c1ccc(C(=O)N[C@@H](CCC(=O)O)C(=O)O)cc1 [Methotrexate]	0.11 ± 0.09
O=C(O)C[C@H](NC(=O)CP(=O)(O)O)C(=O)O [PALA, N-(Phosphonoacetyl)-L-aspartate]	1.3 ± 0.05
Nc1n[nH]c(N)n1 [Guanazole]	0.32 ± 0.08

Same assay, conditions: Hepatitis C virus, 96 h; 10 μM; corrected for rRNA; read-out: Corrected HCV RNA log10 reduction at 10 μM

Structure (SMILES)	log reduction at 10 µM
NC(=O)NO [Hydroxyurea]	0.06 ± 0.04

Same assay, conditions: Hepatitis C virus, 96 h; 100 μM; 4 days; HCV replicon transfected Huh-7 cells; read-out: log10 RNA reduction at 100 μM, HCV

Structure (SMILES)	log reduction at 100 µM
COc1c(C)c2c(c(O)c1C/C=C(\C)CCC(=O)O)C(=O)OC2 [Mycophenolic acid]	1.15 ± 0.43
NC(=O)NO [Hydroxyurea]	0.17 ± 0.08
CN(Cc1cnc2nc(N)nc(N)c2n1)c1ccc(C(=O)N[C@@H](CCC(=O)O)C(=O)O)cc1 [Methotrexate]	0.18 ± 0.01
O=C(O)C[C@H](NC(=O)CP(=O)(O)O)C(=O)O [PALA, N-(Phosphonoacetyl)-L-aspartate]	1.77 ± 0.02

Same assay, conditions: Hepatitis C virus, Huh-7, 96 h, read-out: log10 RNA reduction at 100 μM, HCV

Structure (SMILES)	log reduction at 100 µM
NC(=O)c1csc([C@@H]2O[C@H](CO)[C@@H](O)[C@H]2O)n1 [Tiazofurin]	0.86 ± 0.27
Nc1n[nH]c(N)n1 [Guanazole]	0.25 ± 0.11

Same assay, conditions: Hepatitis C virus, Huh-7, 96 h; 4-days incubation; Huh7 cells harboring self-replicating HCV RNA; read-out: EC90, reduction of replicon HCV RNA

Structure (SMILES)	EC90
Nc1ccn([C@@H]2O[C@H](CO)[C@@H](O)C2(F)F)c(=O)n1 [dFdC, 2′-deoxy-2′,2′-difluorocytidine]	~0.07 µM

Same assay, conditions: Hepatitis C virus, Huh-7; Huh7 cells harboring self-replicating HCV RNA; read-out: EC50, reduction of HCV RNA levels

Structure (SMILES)	EC50
Nc1ccn([C@@H]2O[C@H](CO)[C@@H](O)C2(F)F)c(=O)n1 [dFdC, 2′-deoxy-2′,2′-difluorocytidine]	0.04 µM

Same assay, conditions: Hepatitis C virus; 96 h incubation; read-out: Corrected HCV RNA EC90

Structure (SMILES)	EC90
COc1c(C)c2c(c(O)c1C/C=C(\C)CCC(=O)O)C(=O)OC2 [Mycophenolic acid]	> 100 µM
NC(=O)NO [Hydroxyurea]	> 100 µM
CN(Cc1cnc2nc(N)nc(N)c2n1)c1ccc(C(=O)N[C@@H](CCC(=O)O)C(=O)O)cc1 [Methotrexate]	> 100 µM

Same assay, conditions: dFdC tested initially at 50 μM

Structure (SMILES)	log10 RNA reduction, HCV
Nc1ccn([C@@H]2O[C@H](CO)[C@@H](O)C2(F)F)c(=O)n1 [dFdC, 2′-deoxy-2′,2′-difluorocytidine]	1.87 ± 0.16 log10

Same assay, conditions: dFdC tested initially at 50 μM; corrected for rRNA

Structure (SMILES)	Corrected HCV RNA log10 reduction
Nc1ccn([C@@H]2O[C@H](CO)[C@@H](O)C2(F)F)c(=O)n1 [dFdC, 2′-deoxy-2′,2′-difluorocytidine]	1.29 ± 0.11 log10
